For one test, the target named is T1, β1-integrin (Rattus norvegicus, UniProt P49134).
T1 construct: endogenous in cells; host or cells: primary hippocampal neurons (E18, 5 days after plating)
As to the kind of experiment: Co-immunoprecipitation of MAG-Fc and β1-integrin in primary hippocampal neurons. Type of test: binding. Conditions: echistatin 100 nM; primary hippocampal cultures treated with MAG-Fc. The protocol: To determine whether β1-integrin interacts with myelin associated glycoprotein (MAG), cultured primary hippocampal neurons were treated with recombinant MAG consisting of the MAG extracellular domain fused to human Fc (MAG-Fc; see Experimental Procedures), a fusion protein previously shown to potently regulate neurite outgrowth and induce growth cone turning responses (Domeniconi et al., 2002; Henley et al., 2004; Liu et al., 2002; McKerracher et al., 1994; Shim et al., 2005; Song et al., 1998).
(§1) Hippocampal neurons were isolated from embryonic and postnatal rats, or wild-type and NgR knockout mice (Zheng et al., 2005) as previously described (Song et al., 2002a; Song et al., 2002b). Similarly, cerebellar neurons were isolated from P5 rat cerebellum (Xiang et al., 2002). They were cultured on poly-L-lysine coated plates or coverslips as previously described (Song et al., 2002a; Song et al., 2002b). For biochemical analysis, embryonic day 18 (E18) neurons were treated with the agent AraC to eliminate dividing astrocytes and used at 5 days after plating as previously described (Song et al., 2002a; Song et al., 2002b). For growth cone turning assay, neurons were used between 2-3 days after plating. […]

Test [1] deals with axonal growth cones of P5 rat hippocampal neurons. As to the kind of experiment: Growth cone turning assay in a MAG gradient, P5 hippocampal neurons. Type of test: cell-based. The protocol:
To examine the functional role of β1-integrin in transducing MAG signaling in neuronal growth cones, growth cone turning assays were performed using rat hippocampal neurons. Growth cone turning assays are well-known and described in the art, for example by Song et al., 1998; Xiang et al., 2002; see also Experimental Procedures.
as §1
Microscopic gradients of recombinant MAG (150 μg/ml in the pipette) and OMgp (5 μg/ml in the pipette) were produced as previously described (Lohof et al., 1992; Song et al., 1998; Xiang et al., 2002). […] Statistical significance was assessed using ANOVA and accepted if p<0.01. […]

For test [2], the system named is axonal growth cones of rat P5 hippocampal neurons. As to the kind of experiment: Growth cone turning assay in an OMgp gradient, P5 hippocampal neurons. The class given is cell-based. Conditions: for growth cone turning response to a gradient of the protein: 5 μg/ml in the pipette. The text has this:
Three major myelin-associated inhibitory factors, Nogo-66, MAG and OMgp, are known to bind the common NgR protein, and may utilize the same signal transduction pathway to inhibit axonal extension (Domeniconi et al., 2002; Fournier et al., 2001; Liu et al., 2002; Wang et al., 2002b). Therefore, whether β1-integrin also mediates growth cone responses to other myelin-associated inhibitors was next considered. […] Thus, β1-integrin appears to specifically mediate acute axonal growth cone turning induced by MAG, but not by OMgp.
Hippocampal neurons were isolated from embryonic and postnatal rats, or wild-type and NgR knockout mice (Zheng et al., 2005) as previously described (Song et al., 2002a; Song et al., 2002b). Similarly, cerebellar neurons were isolated from P5 rat cerebellum (Xiang et al., 2002). They were cultured on poly-L-lysine coated plates or coverslips as previously described (Song et al., 2002a; Song et al., 2002b). For biochemical analysis, embryonic day 18 (E18) neurons were treated with the agent AraC to eliminate dividing astrocytes and used at 5 days after plating as previously described (Song et al., 2002a; Song et al., 2002b). For growth cone turning assay, neurons were used between 2-3 days after plating. PI-PLC (1 or 2 units/ml) (Wang et al., 2002b), Ha2/5 (1 μg/ml) or echistatin (100 nM) (Gan et al., 1988) were added for 30 mins prior to and were present during the biochemical analysis or the growth cone turning assay.
Microscopic gradients of recombinant MAG (150 μg/ml in the pipette) and OMgp (5 μg/ml in the pipette) were produced as previously described (Lohof et al., 1992; Song et al., 1998; Xiang et al., 2002). Axons were identified as the longest neurite in these cultures at the stage 2-3 of hippocampal neurons as previously described (Dotti et al., 1988). Growth cone assays were carried out at room temperature for 30 min. […] Statistical significance was assessed using ANOVA and accepted if p<0.01.

The next test deals with FAK. Nature of the test: MAG-induced FAK tyrosine phosphorylation in hippocampal neurons (IP anti-FAK, immunoblot). Type of test: cell-based, rat. The following applies: echistatin 100 nM. The protocol: The question was next asked how β1-integrin signaling transduces MAG-induced neuronal responses. Focal adhesion kinase (FAK) is a major mediator of integrin-dependent signaling in many contexts, including cell migration and axon guidance (Nakamoto et al., 2004; Nikolopoulos and Gianotti, 2005; Xie and Tsai, 2004). […] MAG-induced FAK phosphorylation was abolished in the presence of echistatin (100 nM) or Ha2/5 ([…]) (FIG. 6B). […] The specific FAK tyrosine residues that become phosphorylated upon MAG stimulation in hippocampal neurons were next examined. […] Similar β1-integrin-dependent FAK phosphorylation of these tyrosine residues was also found in embryonic cortical neurons treated with MAG (data not shown).
as §1, with “2002b).” for “2002b). For growth cone turning assay, neurons were used between 2-3 days after plating.”

T1 sequence (P49134 21-799): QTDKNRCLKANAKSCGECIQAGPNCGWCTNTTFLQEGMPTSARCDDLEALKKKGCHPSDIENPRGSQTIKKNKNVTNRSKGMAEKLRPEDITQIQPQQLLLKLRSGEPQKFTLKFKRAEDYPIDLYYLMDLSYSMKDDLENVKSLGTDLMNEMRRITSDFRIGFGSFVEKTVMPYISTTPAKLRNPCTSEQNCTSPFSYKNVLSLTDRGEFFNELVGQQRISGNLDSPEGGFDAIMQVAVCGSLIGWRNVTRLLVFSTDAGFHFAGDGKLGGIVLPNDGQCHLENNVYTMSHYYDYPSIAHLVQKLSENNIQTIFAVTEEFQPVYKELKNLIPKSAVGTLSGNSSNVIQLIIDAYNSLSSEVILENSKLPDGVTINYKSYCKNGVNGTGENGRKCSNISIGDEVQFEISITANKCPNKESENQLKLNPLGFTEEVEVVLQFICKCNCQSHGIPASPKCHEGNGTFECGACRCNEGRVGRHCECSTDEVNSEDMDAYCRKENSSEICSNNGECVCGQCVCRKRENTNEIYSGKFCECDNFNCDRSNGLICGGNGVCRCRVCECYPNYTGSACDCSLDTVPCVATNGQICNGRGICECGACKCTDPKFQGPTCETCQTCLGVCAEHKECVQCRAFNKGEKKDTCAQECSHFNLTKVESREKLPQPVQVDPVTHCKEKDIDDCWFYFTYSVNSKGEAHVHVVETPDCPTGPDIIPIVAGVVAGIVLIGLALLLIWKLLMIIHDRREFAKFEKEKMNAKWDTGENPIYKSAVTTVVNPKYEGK

On to echistatin, for which the “association between MAG and β1-integrin (co-immunoprecipitation)” value at β1-integrin is recorded as “attenuated”. For the same molecule, in test [1] (100 nM echistatin, MAG 150 μg/ml in the pipette), the “effect on MAG-induced growth cone repulsion” value is recorded as “completely abolished”. Also, in test [2] (echistatin 100 nM, OMgp 5 μg/ml in the pipette), the “effect on OMgp-induced growth cone repulsion” value is “still exhibited significant repulsion”. In addition, the “effect on MAG-induced FAK phosphorylation” value in the test with FAK is recorded as “abolished”.

B1: OMgp: recombinant oligodendrocyte-myelin glycoprotein (protein, UniProt P23515 25-417, looked up)
Oligodendrocyte-myelin …: ICPLQCICTERHRHVDCSGRNLSTLPSGLQENIIHLNLSYNHFTDLHNQLTQYTNLRTLDISNNRLESLPAHLPRSLWNMSAANNNIKLLDKSDTAYQWNLKYLDVSKNMLEKVVLIKNTLRSLEVLNLSSNKLWTVPTNMPSKLHIVDLSNNSLTQILPGTLINLTNLTHLYLHNNKFTFIPDQSFDQLFQLQEITLYNNRWSCDHKQNITYLLKWMMETKAHVIGTPCSTQISSLKEHNMYPTPSGFTSSLFTVSGMQTVDTINSLSVVTQPKVTKIPKQYRTKETTFGATLSKDTTFTSTDKAFVPYPEDTSTETINSHEAAAATLTIHLQDGMVTNTSLTSSTKSSPTPMTLSITSGMPNNFSEMPQQSTTLNLWREETTTNVKTPLPS
For the molecule B1, the “growth cone turning response to a gradient of the protein” value (shortened to “growth cone turning response”) in test [2] is on record as “significant repulsive turning responses”.

B2: heat-inactivated Omgp: heat-inactivated OMgp (protein, UniProt P23515 25-417, looked up)
Oligodendrocyte-myelin …: ICPLQCICTERHRHVDCSGRNLSTLPSGLQENIIHLNLSYNHFTDLHNQLTQYTNLRTLDISNNRLESLPAHLPRSLWNMSAANNNIKLLDKSDTAYQWNLKYLDVSKNMLEKVVLIKNTLRSLEVLNLSSNKLWTVPTNMPSKLHIVDLSNNSLTQILPGTLINLTNLTHLYLHNNKFTFIPDQSFDQLFQLQEITLYNNRWSCDHKQNITYLLKWMMETKAHVIGTPCSTQISSLKEHNMYPTPSGFTSSLFTVSGMQTVDTINSLSVVTQPKVTKIPKQYRTKETTFGATLSKDTTFTSTDKAFVPYPEDTSTETINSHEAAAATLTIHLQDGMVTNTSLTSSTKSSPTPMTLSITSGMPNNFSEMPQQSTTLNLWREETTTNVKTPLPS
modifications: heat-inactivated
Regarding B2, the “growth cone turning response” value in test [2] is reported as “not”.

B3: MAG-HI: heat-inactivated MAG (protein, UniProt P20916 20-626, looked up)
Myelin-associated glycoprotein: GHWGAWMPSSISAFEGTCVSIPCRFDFPDELRPAVVHGVWYFNSPYPKNYPPVVFKSRTQVVHESFQGRSRLLGDLGLRNCTLLLSNVSPELGGKYYFRGDLGGYNQYTFSEHSVLDIVNTPNIVVPPEVVAGTEVEVSCMVPDNCPELRPELSWLGHEGLGEPAVLGRLREDEGTWVQVSLLHFVPTREANGHRLGCQASFPNTTLQFEGYASMDVKYPPVIVEMNSSVEAIEGSHVSLLCGADSNPPPLLTWMRDGTVLREAVAESLLLELEEVTPAEDGVYACLAENAYGQDNRTVGLSVMYAPWKPTVNGTMVAVEGETVSILCSTQSNPDPILTIFKEKQILSTVIYESELQLELPAVSPEDDGEYWCVAENQYGQRATAFNLSVEFAPVLLLESHCAAARDTVQCLCVVKSNPEPSVAFELPSRNVTVNESEREFVYSERSGLVLTSILTLRGQAQAPPRVICTARNLYGAKSLELPFQGAHRLMWAKIGPVGAVVAFAILIAIVCYITQTRRKKNVTESPSFSAGDNPPVLFSSDFRISGAPEKYESERRLGSERRLLGLRGEPPELDLSYSHSDLGKRPTKDSYTLTEELAEYAEIRVK
modifications: heat-inactivated
Take B3: the “growth cone turning response” value in test [1] (150 μg/ml in the pipette, 30 min) is on record as “no bias in the direction of axonal extension”.
